Measurements published in patent US8334253B2, “Cosmetic and dermatological formulations of MNTF peptides” (Dermacare Neuroscience Institute, priority 2008, dated 2012).
Peptide text beside a SMILES is read from it. * marks the point of attachment. Palmitoyl = CCCCCCCCCCCCCCCC(=O)*

System: gamma interferon-induced NO production in epidermal keratinocytes
Assay: Inhibition of gamma interferon-induced nitric oxide production in keratinocytes (Griess reaction)
Format: cell-based
Conditions: keratinocytes, 48 hours, gamma-interferon 300 U/ml
Excerpt: The study method chosen is similar to that published in the reference Tsai et al. (Tsai et al, Inhibition of inflammatory nitric oxide production and epidermis damages by Saccharomycopsis Ferment Filtrate. J Dermatol Sci 2006 June 42 (3): 249-57. Laskin, Multifunctional Role of Nitric Oxide in Inflammation, Trends Endocrinol Metab 1994; 5:377-382. Lyons, Emerging Roiles of Nitric Oxide in Inflammation, Hospital Practice, Jul. 15, 1996: 69-86.)
The objective of the study was to investigate the inhibition effect of Pal-hexapeptide (SEQ ID NO: 2, in palmitylated form) on gamma interferon-induced NO production in epidermal keratinocytes in culture.
Anti-inflammatory effect was observed as a reduction of nitric oxide production in keratinocytes. Keratinocytes were incubated 48 hours with gamma-interferon (300 U/ml) alone (as control) or with gamma-interferon together with different concentrations (0.1 μM, 1 μM, 10 μM, 100 μM and 1000 μM) of Pal-hexapeptide. Gamma interferon plus aminoguanidine (10 mg/mL) was used as positive control. The amount of NO production was detected by Griess reaction. Nitric oxide readily oxides to nitrite in aqueous medium, and this reaction was measured as nitrite accumulation in the medium. […] The optical density of the wells were read using a Tibertek Mutiskan (MCC microplate reader at a wavelength of 540 nm, subtracting the absorbance at a reference wavelength of 620 nm.) A printout of the absorbance values was generated by the plate reader, and data were entered into an EXCEL spreadsheet for analysis. The average absorbance and standard deviations were expressed as percent of control absorbances.

For `CCCCCCCCCCCCCCCC(=O)N[C@@H](Cc1ccccc1)C(=O)N[C@@H](CO)C(=O)N[C@@H](CCCNC(=N)N)C(=O)N[C@@H](Cc1ccc(O)cc1)C(=O)N[C@@H](C)C(=O)N[C@@H](CCCNC(=N)N)C(=O)O` [Pal 6 mer, Pal-FSRYAR] (Palmitoyl-FSRYAR-OH; C-terminus assumed), the “nitric oxide production induced by Gamma-interferon, % of the control” value (0.1 μM) was 92%, the “nitric oxide production induced by Gamma-interferon, % of the control” value (1 μM) was 72% and the “nitric oxide production induced by Gamma-interferon, % of the control” value (10 μM) was 57%. The “nitric oxide production induced by Gamma-interferon, % of the control” value (100 μM) was 24% and the “nitric oxide production induced by Gamma-interferon, % of the control” value (1000 μM) was 31%.
